Laboratory results reported in US10259808B2 (Genentech, Inc., priority 2015, dated 2019).
Counter-ions that a name gives are not always drawn.

Target: T1, RORc ligand binding domain (Homo sapiens, UniProt P51449)
T1 sequence (P51449 269-508 limits assumed): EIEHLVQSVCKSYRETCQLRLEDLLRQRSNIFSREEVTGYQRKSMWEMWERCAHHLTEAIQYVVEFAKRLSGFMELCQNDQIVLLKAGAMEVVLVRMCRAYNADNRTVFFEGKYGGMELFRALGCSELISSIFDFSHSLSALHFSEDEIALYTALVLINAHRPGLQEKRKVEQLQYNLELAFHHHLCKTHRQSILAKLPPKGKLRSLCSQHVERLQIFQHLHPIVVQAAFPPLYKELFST
Test: In vitro RORc ligand binding assay (25-[3H]hydroxycholesterol displacement)
Procedure: This assay was used to determine a compound's potency in inhibiting activity of RORc by determining, Kiapp, IC50, or percent inhibition values.
On day of the assay, 100 uL of 0.05% CHAPS (in deionized H2O) was added to all wells of the GFB Unifilter plate and allowed soak for 1 h. A wash buffer of 50 mM HEPES (pH 7.4), 150 mM NaCl, and 5 mM MgCl2 was prepared to wash the filter plate. To prepare an assay buffer, BSA was added to the wash buffer to reach 0.01% and DTT was added to reach 1 mM.
The 20× compound stocks were diluted in DMSO with Assay Buffer 4-fold to reach 5× the final test concentration in 25% DMSO (10 uL compound+30 uL Assay Buffer). Solutions were mixed by aspiration several times with a pipette set on 50 uL volume.
For two point screening, 10 mM stock compound solutions were diluted in DMSO to obtain 200 uM (20× the high test concentration) and then diluted 10-fold further to reach 20 uM (20× the low test concentration). The 20× stocks were diluted 4-fold with Assay Buffer (10 uL compound+30 uL Assay Buffer) to reach 5× the test concentrations (50 uM and 5 uM) and 10 uL were added to two assay plates for the duplicate wells. With each concentration tested on 2 plates, each set of 80 compounds used 4 assay plates (1 uM and 10 uM, with n=2).
Nonspecific Binding (NSB) Samples, Total Binding (TB) Samples and No Receptor (No R) Samples
For 25-hydroxycholesterol in 25% DMSO/75% Assay Buffer; 10 uL per well was used for NSB samples. Wells for Total Binding and No Receptor sample determination contained 10 uL of 25% DMSO/75% Assay Buffer per well.
Radioligand 25-[^3H]Hydroxycholesterol) Preparation
Add 20 uL to all wells to reach 6 nM final in the assay.
Stock receptor solution was diluted in assay buffer to obtain 1.5 ug/mL in Assay Buffer. 20 uL was added to all wells. For No R samples, 20 uL Assay Buffer was substituted for receptor solution.
Sample addition to Plates and Incubation
Assay plates were 96-well polypropylene V-bottom plates. […] 10 uL of 25% DMSO/75% Assay Buffer was added to Total Binding or No Receptor wells. 10 uL of 5 uM 25-hydroxycholesterol in 25% DMSO/75% Assay Buffer was added to NSB wells. […] 20 uL of 1.5 ug/mL RORc receptor was added to wells (or 40 uL Assay Buffer to No R wells). Following addition to the wells, the plates were incubated 3 h at 25° C.
Using a Packard Filtermate Harvester, the filter plate were washed 4 times following transfer of the incubated samples. Plates were dry-filtered completely (2 h at 50° C. or overnight at room temperature). 50 uL Microscint 0 was added to all wells and read on Topcount protocol Inverted.
Final concentrations were as follows: 50 mM HEPES buffer (pH 7.4); 150 mM NaCl; 1 mM DTT; 5 mM MgCl2; 0.01% BSA; 5% DMSO; 0.6 ug/mL RORc receptor; 6 nM 25-[^3H]hydroxycholesterol. For NSB wells, 1 uM 25-hydroxycholesterol was also present.

Structure (SMILES)	IC50 [µM]
CCOC(=O)Cn1cnc(C2(c3cc(F)c(CN4[C@@H](C)CC[C@H](c5ccccc5)S4(=O)=O)cc3F)CCOCC2)n1 [Example 52, ethyl 2-[3-[4-[2,5-difluoro-4-[[(3S,6R)-3-methyl-1,1-dioxo-6-phenyl-thiazinan-2-yl]methyl]phenyl]tetrahydropyran-4-yl]-1,2,4-triazol-1-yl]acetate]	0.071
C[C@H]1CC[C@H](c2ccccc2)S(=O)(=O)N1Cc1ccc(C2(C(=O)NC3COC3)CCOCC2)cc1F [Example 1]	0.11
C[C@H]1CC[C@H](c2ccccc2)S(=O)(=O)N1Cc1cc(F)c(C2(c3n[nH]c(=O)o3)CCC2)cc1F [Example 144, 5-[1-[2,5-difluoro-4-[[(3S,6R)-3-methyl-1,1-dioxo-6-phenyl-thiazinan-2-yl]methyl]phenyl]cyclobutyl]-3H-1,3,4-oxadiazol-2-one]	0.0094
C[C@H]1CC[C@H](c2ccccc2)S(=O)(=O)N1Cc1cc(F)c(C2(NCc3ccn(C)n3)CCOCC2)cc1F [Example 91, 4-[2,5-difluoro-4-[[(3S,6R)-3-methyl-1,1-dioxo-6-phenyl-thiazinan-2-yl]methyl]phenyl]-N-[(1-methylpyrazol-3-yl)methyl]tetrahydropyran-4-amine]	0.0826
C[C@H]1CC[C@H](c2ccccc2)S(=O)(=O)N1Cc1ccc(C2(C(=O)NC3(C)COC3)CCOCC2)cc1F [Example 9, 4-[3-fluoro-4-[[(3S,6R)-3-methyl-1,1-dioxo-6-phenyl-thiazinan-2-yl]methyl]phenyl]-N-(3-methyloxetan-3-yl)tetrahydropyran-4-carboxamide]	0.144
C[C@H]1CC[C@H](c2ccccc2)S(=O)(=O)N1Cc1ccc(C2(c3noc(CN(C)C)n3)CCOCC2)cc1F [Example 28, 1-[3-[4-[3-fluoro-4-[[(3S,6R)-3-methyl-1,1-dioxo-6-phenyl-thiazinan-2-yl]methyl]phenyl]tetrahydropyran-4-yl]-1,2,4-oxadiazol-5-yl]-N,N-dimethyl-methanamine]	0.465
C[C@H]1CC[C@H](c2ccccc2)S(=O)(=O)N1Cc1cc(F)c([C@]2(c3n[nH]c(=O)o3)C[C@@H]2CO)cc1F [Example 150, 5-[(1S,2S)-1-[2,5-difluoro-4-[[(3S,6R)-3-mcthyl-1,1-dioxo-6-phenyl-thiazinan-2-yl]methyl]phenyl]-2-(hydroxymethyl)cyclopropyl]-3H-1,3,4-oxadiazol-2-one]	0.039
C[C@H]1CC[C@H](c2ccccc2)S(=O)(=O)N1Cc1cc(F)c([C@]2(c3n[nH]c(=O)o3)C[C@](O)(C3CC3)C2)cc1F [Example 141, cis 5-[3-cyclopropyl-1-[2,5-difluoro-4-[[(3S,6R)-3-methyl-1,1-dioxo-6-phenyl-thiazinan-2-yl]methyl]phenyl]-3-hydroxy-cyclobutyl]-3H-1,3,4-oxadiazol-2-one]	0.0092
C[C@H]1CC[C@H](c2ccccc2)S(=O)(=O)N1Cc1cc(F)c(C2(c3nc(CO)co3)CCOCC2)cc1F [Example 74, [2-[4-[2,5-difluoro-4-[[(3S,6R)-3-methyl-1,1-dioxo-6-phenyl-thiazinan-2-yl]methyl]phenyl]tetrahydropyran-4-yl]oxazol-4-yl]methanol]	0.0128
C[C@H]1CC[C@H](c2ccccc2)S(=O)(=O)N1Cc1cc(F)c([C@]2(NCC3(C)COC3)C[C@](C)(O)C2)cc1F (racemic) [Example 187, 3-[2,5-difluoro-4-[[rac-(3S,6R)-3-methyl-1,1-dioxo-6-phenyl-thiazinan-2-yl]methyl]phenyl]-1-methyl-3-[(3-methyloxetan-3-yl)methylamino]cyclobutanol]	0.01
Cc1nnc(C2(c3ccc(CN4[C@@H](C)CC[C@H](c5ccccc5)S4(=O)=O)c(F)c3)CCOCC2)o1 [Example 43, (3S,6R)-2-[[2-fluoro-4-[4-(5-methyl-1,3,4-oxadiazol-2-yl)tetrahydropyran-4-yl]phenyl]methyl]-3-methyl-6-phenyl-thiazinane 1,1-dioxide]	0.142
C[C@H]1CC[C@H](c2ccccc2)S(=O)(=O)N1Cc1ccc(C2(C(=O)NCCN3CCC(O)CC3)CCOCC2)cc1F [Example 5]	1.86
C[C@H]1CC[C@H](c2ccccc2)S(=O)(=O)N1Cc1cc(F)c(C2(NCC3CCOC3)COC2)cc1F (stereo partly drawn) [Example 136, 3-[2,5-difluoro-4-[[(3S,6R)-3-methyl-1,1-dioxo-6-phenyl-thiazinan-2-yl]methyl]phenyl]-N-(tetrahydrofuran-3-ylmethyl)oxetan-3-amine]	0.0239
C[C@H]1CC[C@H](c2ccccc2)S(=O)(=O)N1Cc1cc(F)c([C@]2(c3n[nH]c(=O)o3)C[C@@](C)(O)C2)cc1F [Example 127, cis-5-[1-[2,5-difluoro-4-[[(3S,6R)-3-methyl-1,1-dioxo-6-phenyl-thiazinan-2-yl]methyl]phenyl]-3-hydroxy-3-methyl-cyclobutyl]-3H-1,3,4-oxadiazol-2-one]	0.0072
Cc1cncc(C(=O)NC2(c3cc(F)c(CN4[C@@H](C)CC[C@H](c5ccccc5)S4(=O)=O)cc3F)CCOCC2)n1 [Example 108, N-[4-[2,5-difluoro-4-[[(3S,6R)-3-methyl-1,1-dioxo-6-phenyl-thiazinan-2-yl]methyl]phenyl]tetrahydropyran-4-yl]-6-methyl-pyrazine-2-carboxamide]	0.0192
C[C@H]1CC[C@H](c2ccccc2)S(=O)(=O)N1Cc1cc(F)c(C2(NCc3ccnn3C)COC2)cc1F [Example 137, 3-[2,5-difluoro-4-[[(3S,6R)-3-methyl-1,1-dioxo-6-phenyl-thiazinan-2-yl]methyl]phenyl]-N-[(2-methylpyrazol-3-yl)methyl]oxetan-3-amine]	0.0894
CO[C@H]1C[C@@](c2n[nH]c(=O)o2)(c2cc(F)c(CN3[C@@H](C)CC[C@H](c4ccccc4)S3(=O)=O)cc2F)C1 [Example 154, trans 5-[1-[2,5-difluoro-4-[[(3S,6R)-3-methyl-1,1-dioxo-6-phenyl-thiazinan-2-yl]methyl]phenyl]-3-methoxy-cyclobutyl]-3H-1,3,4-oxadiazol-2-one]	0.0062
C[C@H]1CC[C@H](c2ccccc2)S(=O)(=O)N1Cc1cc(F)c([C@]2(c3n[nH]c(=O)o3)C[C@@H](CC#N)C2)cc1F [Example 152, cis 2-[3-[2,5-difluoro-4-[[(3S,6R)-3-methyl-1,1-dioxo-6-phenyl-thiazinan-2-yl]methyl]phenyl]-3-(2-oxo-3H-1,3,4-oxadiazol-5-yl)cyclobutyl]acetonitrile]	0.0071
C[C@H]1CC[C@H](c2ccccc2)S(=O)(=O)N1Cc1cc(F)c(C2(NC(=O)c3cocn3)COC2)cc1F [Example 96, N-[3-[2,5-difluoro-4-[[(3S,6R)-3-methyl-1,1-dioxo-6-phenyl-thiazinan-2-yl]methyl]phenyl]oxetan-3-yl]oxazole-4-carboxamide]	0.0356
C[C@H]1CC[C@H](c2ccccc2)S(=O)(=O)N1Cc1cc(F)c([C@]2(c3nn(C)c(=O)o3)C[C@H](O)C2)cc1F [Example 147, trans 5-[1-[2,5-difluoro-4-[[(3S,6R)-3-methyl-1,1-dioxo-6-phenyl-thiazinan-2-yl]methyl]phenyl]-3-hydroxy-cyclobutyl]-3-methyl-1,3,4-oxadiazol-2-one]	0.0046
C[C@H]1CC[C@H](c2ccccc2)S(=O)(=O)N1Cc1cc(F)c(C2(c3nnc(N)o3)CC(F)(F)C2)cc1F [Example 132, 5-[1-[2,5-difluoro-4-[[(3S,6R)-3-methyl-1,1-dioxo-6-phenyl-thiazinan-2-yl]methyl]phenyl]-3,3-difluoro-cyclobutyl]-1,3,4-oxadiazol-2-amine]	0.0128
C[C@H]1CC[C@H](c2ccccc2)S(=O)(=O)N1Cc1cc(F)c(C2(NC(=O)Cc3ccon3)CCOCC2)cc1F [Example 104, N-[4-[2,5-difluoro-4-[[(3S,6R)-3-methyl-1,1-dioxo-6-phenyl-thiazinan-2-yl]methyl]phenyl]tetrahydropyran-4-yl]-2-isoxazol-3-yl-acetamide]	0.0026
C[C@H]1CC[C@H](c2ccccc2)S(=O)(=O)N1Cc1cc(F)c([C@]2(c3n[nH]c(=O)o3)C[C@](C)(N)C2)cc1F (racemic) [Example 173, 5-[3-amino-1-[2,5-difluoro-4-[[rac-(3S,6R)-3-methyl-1,1-dioxo-6-phenyl-thiazinan-2-yl]methyl]phenyl]-3-methyl-cyclobutyl]-3H-1,3,4-oxadiazol-2-one; hydrochloride]	0.18
C[C@H]1CC[C@H](c2ccccc2)S(=O)(=O)N1Cc1cc(F)c([C@]2(Cn3cn[nH]c3=O)C[C@](C)(O)C2)cc1F (racemic) [Example 178, 4-[[1-[2,5-difluoro-4-[[rac-(3S,6R)-3-methyl-1,1-dioxo-6-phenyl-thiazinan-2-yl]methyl]phenyl]-3-hydroxy-3-methyl-cyclobutyl]methyl]-1H-l,2,4-triazol-5-one]	0.0061
C[C@H]1CC[C@H](c2ccccc2)S(=O)(=O)N1Cc1cc(F)c(C2(NCc3nnc[nH]3)CCOCC2)cc1F [Example 92, 4-[2,5-difluoro-4-[[(3S,6R)-3-methyl-1,1-dioxo-6-phenyl-thiazinan-2-yl]methyl]phenyl]-N-(4H-1,2,4-triazol-3-ylmethyl)tetrahydropyran-4-amine]	0.0236
C[C@H]1CC[C@H](c2ccccc2)S(=O)(=O)N1Cc1cc(F)c(C2(NC[C@@H]3CCC(=O)N3)COC2)cc1F [Example 111, (5S)-5-[[[3-[2,5-difluoro-4-[[(3S,6R)-3-methyl-1,1-dioxo-6-phenyl-thiazinan-2 yl]methyl]phenyl]oxetan-3-yl]amino]methyl]pyrrolidin-2-one]	0.0898
C[C@H]1CC[C@H](c2ccccc2)S(=O)(=O)N1Cc1cc(F)c(C2(NC(=O)c3cc(=O)[nH]o3)COC2)cc1F [Example 106, N-[3-[2,5-difluoro-4-[[(3S,6R)-3-methyl-1,1-dioxo-6-phenyl-thiazinan-2-yl]methyl]phenyl]oxetan-3-yl]-3-oxo-isoxazole-5-carboxamide]	0.0051
